The results in this text go back to patent US20090306112A1, “ANTIVIRAL PROTEASE INHIBITORS” (Gilead Sciences, Inc., priority 2006, published 2009).

Structures are written as SMILES. pKi: −log10 of the molar value.

This experiment addresses T1, recombinant HIV-1 protease expressed in E. Coli (Human immunodeficiency virus type 1 group M subtype B, UniProt P04585).
T1 construct: Enzyme: recombinant HIV-1 protease expressed in E. Coli; purchased Bachem California, Inc. (Torrance, Calif.) H-9040; host or cells: E. coli
The experiment in a line: HIV-1 Protease Enzyme Assay (Ki), fluorimetric detection of hexapeptide substrate cleavage. The format is biochemical. The settings on record: tight-binding competitive inhibition; 37° C., pH 5.3, final substrate concentration 40 μM, enzyme 1 to 2.5 nM. The source says: Biological Assays Used for the Characterization of HIV Protease Inhibitors HIV-1 Protease Enzyme Assay (Ki)
The assay is based on the fluorimetric detection of synthetic hexapeptide substrate cleavage by HIV-1 protease in a defined reaction buffer as initially described by M. V. Toth and G. R. Marshall, Int. J. Peptide Protein Res. 36, 544 (1990)
Substrate: (2-aminobenzoyl)Thr-Ile-Nle-(p-nitro)Phe-Gln-Arg
Substrate supplied by Bachem California, Inc. (Torrance, Calif.; Cat. no. H-2992)
Enzyme: recombinant HIV-1 protease expressed in E. Coli
Enzyme supplied by Bachem California, Inc. (Torrance, Calif.; Cat. no. H-9040)
Reaction buffer: • 100 mM ammonium acetate, pH 5.3 • 1 M sodium chloride • 1 mM ethylendiaminetetraacetic acid • 1 mM dithiothreitol • 10% dimethylsulfoxide
Assay Protocol for the Determination of Inhibition Constant Ki:
• 1. Prepare series of solutions containing identical amount of the enzyme (1 to 2.5 nM) and a tested inhibitor at different concentrations in the reaction buffer • 2. Transfer the solutions (190 uL each) into a white 96-well plate • 3. Preincubate for 15 min at 37° C. • 4. Solubilize the substrate in 100% dimethylsulfoxide at a concentration of 800 μM. Start the reaction by adding 10 μL of 800 μM substrate into each well (final substrate concentration of 40 μM) • 5. Measure the real-time reaction kinetics at 37° C. by using Gemini 96-well plate fluorimeter (Molecular Devices, Sunnyvale, Calif.) at λ(Ex)=330 nm and λ(Em)=420 nm • 6. Determine initial velocities of the reactions with different inhibitor concentrations and calculate Ki (in picomolar concentration units) value by using EnzFitter program (Biosoft, Cambridge, U.K.) according to an algorithm for tight-binding competitive inhibition described by Ermolieff J., Lin X., and Tang J., Biochemistry 36, 12364 (1997)
For orientation: pKi means −log10 of the Ki, conventionally taken in molar units. In the case of `Cc1cccc(C)c1OCC(=O)NN(Cc1ccc(-c2ccccn2)cc1)C[C@H](O)[C@H](Cc1ccccc1)NC(=O)O[C@H]1CO[C@H]2OCC[C@H]21` [Example AN], the pKi is > 10.52.
Next, `COC(=O)NC(C(=O)NN(Cc1ccc(-c2ccccn2)cc1)C[C@H](O)[C@H](Cc1ccccc1)NC(=O)O[C@H]1C(=O)OCC1(C)C)C(C)(C)C` (some centres unmarked) [Example C]: > 10.52; `CC(C)OC(=O)NC(C(=O)NN(Cc1ccc(-c2ccccn2)cc1)C[C@H](O)[C@H](Cc1ccccc1)NC(=O)O[C@H]1CO[C@H]2OCC[C@H]21)C(C)(C)C` (some centres unmarked) [Example J]: > 10.52; `CC(C)(C)C(NC(=O)OCc1cscn1)C(=O)NN(Cc1ccc(-c2ccccn2)cc1)C[C@H](O)[C@H](Cc1ccccc1)NC(=O)O[C@H]1CO[C@H]2OCC[C@H]21` (some centres unmarked) [Example M]: > 10.52.
On to `CC(C)(C)C(NC(=O)C(F)(F)F)C(=O)NN(Cc1ccc(-c2ccccn2)cc1)C[C@H](O)[C@H](Cc1ccccc1)NC(=O)O[C@H]1CO[C@H]2OCC[C@H]21` (some centres unmarked) [Example N], for which the pKi is > 10.52.
Next, `COC(=O)NC(C(=O)NN(Cc1ccc(-c2ccncc2)cc1)C[C@H](O)[C@H](Cc1ccc(OC)cc1)NC(=O)O[C@H]1CO[C@H]2OCC[C@H]21)C(C)(C)C` (some centres unmarked) [Example Q]: > 10.52.
In the case of `COC(=O)NC(C(=O)NN(Cc1ccc(OCc2ccncc2)cc1)C[C@H](O)[C@H](Cc1ccc(OC)cc1)NC(=O)O[C@H]1CO[C@H]2OCC[C@H]21)C(C)(C)C` (some centres unmarked) [Example T], the negative logarithm of the Ki (pKi) was > 10.52.
The value for `COC(=O)NC(C(=O)NN(Cc1ccc(OCc2ccoc2)cc1)C[C@H](O)[C@H](Cc1ccc(OC)cc1)NC(=O)O[C@H]1CO[C@H]2OCC[C@H]21)C(C)(C)C` (some centres unmarked) [Example V] was > 10.52.
